Assay results taken from patent US20250313563A1, “GLYCOGEN SYNTHASE KINASE 3 INHIBITORS AND USES THEREOF” (The Broad Institute, Inc., priority 2022, published 2025).
Like-named read-outs stand apart in the source and are kept apart here.

Tests used:
[1] = biological target: GSK3b (GST-full length GSK3b) (Homo sapiens (Human), UniProt P49841); assay: GSK3b TR-FRET kinase assay; format: biochemical
In short: (§1)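 In this time-resolved FRET format, kinase reactions contained 200 nM biotinylated, S645-phosphorylated glycogen synthase 631-650 peptide and either isoform-specific ATP (2 μM GSK3b, 4 μM GSK3α) or 1 mM ATP. They were quenched with EDTA after 100 min at ambient temperature. Inhibition curves gave IC50 values.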

[2] = biological target: GSK3α (GST-full length GSK3α) (Homo sapiens (Human), UniProt P49840); assay: GSK3α TR-FRET kinase assay; format: biochemical
In short: as §1

[3] = 1 nM GSK3b, 2 μM ATP, 30 minute preincubation, geometric mean, read-out: GSK3-B TR-FRET BIOCHEMICAL (TR-FRET), GMean, IC50
[4] = 1 nM GSK3α, 4 μM ATP, 30 minute preincubation, geometric mean, read-out: GSK3-A TR-FRET BIOCHEMICAL (TR-FRET), GMean, IC50
[5] = 1 nM GSK3b, 2 μM ATP, 30 minute preincubation, Table 16, read-out: GSK3-B TR-FRET BIOCHEMICAL (TR-FRET), IC50
[6] = 1 nM GSK3α, 4 μM ATP, 30 minute preincubation, Table 16, read-out: GSK3-A TR-FRET BIOCHEMICAL (TR-FRET), IC50
[7] = 1 nM GSK3b, 2 μM ATP, 30 minute preincubation, read-out: GSK3-B TR-FRET BIOCHEMICAL (TR-FRET), IC50
[8] = GSK3-B (TR-FRET 1 mM ATP), GMean, IC50, 1 mM ATP, geometric mean
[9] = 1 nM GSK3α, 4 μM ATP, 30 minute preincubation, read-out: GSK3-A TR-FRET BIOCHEMICAL (TR-FRET), IC50
[10] = GSK3-A (TR-FRET 1 mM ATP), GMean, IC50, 1 mM ATP, geometric mean
[11] = 1 nM GSK3b, 2 μM ATP, 30 minute preincubation, Table 16, read-out: GSK3-B TR-FRET BIOCHEMICAL (TR-FRET)
[12] = 1 nM GSK3α, 4 μM ATP, 30 minute preincubation, Table 16, read-out: GSK3-A TR-FRET BIOCHEMICAL (TR-FRET)

Chain of GSK3α (GST-full length GSK3α) (P49840 whole entry): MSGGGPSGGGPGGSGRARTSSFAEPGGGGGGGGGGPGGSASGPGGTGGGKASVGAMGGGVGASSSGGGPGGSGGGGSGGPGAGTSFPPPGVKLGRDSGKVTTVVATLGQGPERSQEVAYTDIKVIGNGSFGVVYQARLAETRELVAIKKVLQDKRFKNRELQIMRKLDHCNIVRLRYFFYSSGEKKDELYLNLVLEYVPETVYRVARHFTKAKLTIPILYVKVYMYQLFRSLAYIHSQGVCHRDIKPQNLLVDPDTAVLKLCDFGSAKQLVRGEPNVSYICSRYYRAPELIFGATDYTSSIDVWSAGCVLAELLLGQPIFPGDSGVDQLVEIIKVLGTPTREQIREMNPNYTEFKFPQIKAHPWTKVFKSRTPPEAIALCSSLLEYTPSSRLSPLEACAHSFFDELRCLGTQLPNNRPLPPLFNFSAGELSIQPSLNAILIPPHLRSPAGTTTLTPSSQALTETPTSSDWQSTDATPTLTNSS
Chain of GSK3b (GST-full length GSK3b) (P49841 whole entry, canonical isoform): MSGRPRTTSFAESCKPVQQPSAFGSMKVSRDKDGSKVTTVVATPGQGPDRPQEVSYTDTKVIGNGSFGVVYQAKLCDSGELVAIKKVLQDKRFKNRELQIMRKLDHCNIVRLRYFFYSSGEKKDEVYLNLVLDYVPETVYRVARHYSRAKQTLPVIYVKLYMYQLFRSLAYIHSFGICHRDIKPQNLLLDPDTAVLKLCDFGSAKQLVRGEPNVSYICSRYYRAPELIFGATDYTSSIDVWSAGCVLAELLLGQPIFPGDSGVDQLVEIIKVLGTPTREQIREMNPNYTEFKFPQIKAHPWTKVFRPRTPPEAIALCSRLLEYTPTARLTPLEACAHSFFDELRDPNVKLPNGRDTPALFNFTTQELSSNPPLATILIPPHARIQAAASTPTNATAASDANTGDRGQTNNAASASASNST

Structure (SMILES): CCC1(c2cccc(N(C)c3ccncc3)c2)C2=C(CC(C)(C)CC2=O)Nc2n[nH]cc21 (stereo not drawn) [Compound 874261]
- IC50 [1, 3]: > 5 µM
- IC50 [2, 4]: 0.1 to 1 µM

Structure (SMILES): CCC1(c2cccc(N(C)c3ccccn3)c2)C2=C(CC(C)(C)CC2=O)Nc2n[nH]cc21 (stereo not drawn) [Compound 874294]
- IC50 [1, 3]: 0.1 to 1 µM
- IC50 [2, 4]: ≤ 0.1 µM

Structure (SMILES): CCC1(c2cccc(N(C)c3cccnc3)c2)C2=C(CC(C)(C)CC2=O)Nc2n[nH]cc21 (stereo not drawn) [Compound 874298]
- IC50 [1, 3]: ≤ 0.1 µM
- IC50 [2, 4]: ≤ 0.1 µM

Structure (SMILES): CCC1(c2cccc(N(C)c3cccnc3)c2)C2=C(CC(C)(C)CC2=O)Nc2n[nH]cc21 (stereo not drawn) [Compound 874299]
- IC50 [1, 3]: > 5 µM
- IC50 [2, 4]: 0.1 to 1 µM

Structure (SMILES): CCC1(c2cccc(N3CCOCC3)c2)C2=C(CC(C)(C)CC2=O)Nc2n[nH]c(C)c21 (stereo not drawn) [Compound 874312]
- IC50 [1, 3]: ≤ 0.1 µM
- IC50 [2, 4]: ≤ 0.1 µM

Structure (SMILES): CCC1(COCc2ccccc2)C2=C(CC(C)(C)CC2=O)Nc2n[nH]cc21 (stereo not drawn) [Compound 874313]
- IC50 [1, 5]: 1 to 5 µM
- IC50 [2, 6]: 1 to 5 µM

Structure (SMILES): CCC1(c2cccc(-c3ccncc3)c2)C2=C(CC(C)CC2=O)Nc2n[nH]cc21 (stereo not drawn) [Compound 874315]
- IC50 [1, 3]: > 5 µM
- IC50 [2, 4]: 1 to 5 µM

Structure (SMILES): CCC1(c2cccc(-c3ccncc3)c2)C2=C(CC(C)CC2=O)Nc2n[nH]cc21 (stereo not drawn) [Compound 874316]
- IC50 [1, 3]: 1 to 5 µM
- IC50 [2, 4]: 0.1 to 1 µM

Structure (SMILES): C[C@@H]1CCC[C@]12C1=C(CC(C)(C)CC1=O)Nc1n[nH]cc12 [Compound 874319]
- IC50 [1, 5]: 1 to 5 µM
- IC50 [2, 6]: 1 to 5 µM

Structure (SMILES): C[C@H]1CCC[C@@]12C1=C(CC(C)(C)CC1=O)Nc1n[nH]cc12 [Compound 874320]
- IC50 [1, 5]: 1 to 5 µM
- IC50 [2, 6]: 1 to 5 µM

Structure (SMILES): CC1(C)CC(=O)C2=C(C1)Nc1n[nH]c(CCC(F)(F)F)c1C21CCc2c(F)cccc21 (stereo not drawn) [Compound 874323]
- IC50 [1, 3]: 1 to 5 µM
- IC50 [2, 4]: 1 to 5 µM

Structure (SMILES): CC1(C)CC(=O)C2=C(C1)Nc1n[nH]cc1C21CC2(CCCC2)C1 [Compound 874477]
- IC50 [1, 7]: ≤ 0.1 µM
- IC50 [1, 8]: 1 to 5 µM
- IC50 [2, 9]: ≤ 0.1 µM
- IC50 [2, 10]: 0.1 to 1 µM

Structure (SMILES): CC1(C)CC(=O)C2=C(C1)Nc1n[nH]cc1C21CCC1 [Compound 874509]
- IC50 [1, 11]: 0.1 to 1 µM
- IC50 [2, 12]: 0.1 to 1 µM

Structure (SMILES): CCC1(c2ccccc2)C2=C(CC(C)(C)CC2=O)Nc2n[nH]c(C(F)F)c21 (stereo not drawn) [Compound 874510]
- IC50 [1, 3]: ≤ 0.1 µM
- IC50 ([1]; read-out: GSK3-B (TR-FRET 1 mM ATP), GMean, IC50, 1 mM ATP, geometric mean): 0.1 to 1 µM
- IC50 [2, 4]: ≤ 0.1 µM
- IC50 ([2]; read-out: GSK3-A (TR-FRET 1 mM ATP), GMean, IC50, 1 mM ATP, geometric mean): 0.1 to 1 µM

Structure (SMILES): CC1(C)CC(=O)C2=C(C1)Nc1n[nH]cc1C21CC(C(F)(F)F)C1 (stereo not drawn) [Compound 874527]
- IC50 [1, 11]: 0.1 to 1 µM
- IC50 [2, 12]: ≤ 0.1 µM

Structure (SMILES): CC1(C)CC(=O)C2=C(C1)Nc1n[nH]cc1C21CCN(CC(F)(F)F)CC1 [Compound 874528]
- IC50 [1, 11]: 0.1 to 1 µM
- IC50 [2, 12]: ≤ 0.1 µM

Structure (SMILES): CC1(C)CC(=O)C2=C(C1)Nc1n[nH]cc1C21CCN(c2ccncn2)CC1 [Compound 874529]
- IC50 [1, 11]: 1 to 5 µM
- IC50 [2, 12]: 0.1 to 1 µM

Structure (SMILES): CC1(C)CC(=O)C2=C(C1)Nc1n[nH]cc1C21CCN(S(=O)(=O)c2ccccc2)CC1 [Compound 874530]
- IC50 [1, 11]: ≤ 0.1 µM
- IC50 [1, 8]: 1 to 5 µM
- IC50 [2, 12]: ≤ 0.1 µM
- IC50 [2, 10]: 0.1 to 1 µM

Structure (SMILES): CCC1(c2cccc(-n3ccnc3)c2)C2=C(CC(C)(C)CC2=O)Nc2n[nH]cc21 (stereo not drawn) [Compound 874531]
- IC50 [1, 3]: ≤ 0.1 µM
- IC50 [2, 4]: ≤ 0.1 µM

Structure (SMILES): C[C@@H]1CCC[C@]2(C1)C1=C(CC(C)(C)CC1=O)Nc1n[nH]cc12 [Compound 874532]
- IC50 [1, 11]: ≤ 0.1 µM
- IC50 [2, 12]: ≤ 0.1 µM

Structure (SMILES): CCC1(c2cccc(-n3ccnc3)c2)C2=C(CC(C)(C)CC2=O)Nc2n[nH]cc21 (stereo not drawn) [Compound 874533]
- IC50 [1, 3]: > 5 µM
- IC50 [2, 4]: 0.1 to 1 µM

Structure (SMILES): CC1(C)CC(=O)C2=C(C1)Nc1n[nH]cc1C21CC2(CCOCC2)C1 [Compound 874534]
- IC50 [1, 7]: ≤ 0.1 µM
- IC50 [1, 8]: 0.1 to 1 µM
- IC50 [2, 9]: ≤ 0.1 µM
- IC50 [2, 10]: 0.1 to 1 µM

Structure (SMILES): CC1(C)CC(=O)C2=C(C1)Nc1n[nH]cc1[C@]21CCCOCC1 [Compound 874535]
- IC50 [1, 11]: ≤ 0.1 µM
- IC50 [2, 12]: ≤ 0.1 µM

Structure (SMILES): CC1(C)CC(=O)C2=C(C1)Nc1n[nH]cc1[C@@]21CCCOCC1 [Compound 874536]
- IC50 [1, 5]: 1 to 5 µM
- IC50 [2, 6]: 0.1 to 1 µM

Structure (SMILES): C[C@@H]1CCC[C@@]2(C1)C1=C(CC(C)(C)CC1=O)Nc1n[nH]cc12 [Compound 874537]
- IC50 [1, 11]: 0.1 to 1 µM
- IC50 [2, 12]: 0.1 to 1 µM

Structure (SMILES): CC[C@@]1(c2cccc(N(C)c3ccccn3)c2)C2=C(CC(C)(C)CC2=O)Nc2n[nH]cc21 [Compound 875608]
- IC50 [1, 3]: > 5 µM
- IC50 [2, 4]: 1 to 5 µM
